By T/C is commonly meant the ratio of treated to control.

Here are results for 2 molecules from ChEMBL document CHEMBL1124001, “Synthesis and antileukemic activity of bis[[(carbamoyl)oxy]methyl]- substituted pyrrolo[2,1-a]isoquinolines, pyrrolo[1,2-a]quinolines, pyrrolo[2,1-a]isobenzazepines, and pyrrolo[1,2-a]benzazepines” (J Med Chem, 1988).

Data set [1] deals with Mus musculus. As to the kind of experiment: Toxicity day survivors was determined by the ratio of animals survived to that of test animals at 1.87 mg/kg intraperitoneally in CD2F1 mice; 5/5. It is filed as organism-based. The arrangement: dose 1.87 mg/kg, route intraperitoneal. The conditions noted are these: in vivo, ip.
The test system of data set [2] is Mus musculus. Put plainly: Ratio of treated to that of untreated tumor-bearing control animals at 15 mg/kg intraperitoneally in CD2F1 mice was determined. Format: functional. As to conditions: route intraperitoneal.
For data set [3], the system named is Mus musculus. Put plainly: Ratio of treated to that of untreated tumor-bearing control animals at 1.87 mg/kg intraperitoneally in CD2F1 mice was determined. It is filed as functional. The conditions noted are these: route intraperitoneal.
The subject of data set [4] is Mus musculus. As to the kind of experiment: Net log cell kill was determined after injecting 15 mg/kg intraperitoneally in CD2F1 mice. Format: functional. The conditions noted are these: route intraperitoneal.
For data set [5], the system named is Mus musculus. Put plainly: Body weight change of test animals to that of control was determined after injection at 30 mg/kg intraperitoneally in CD2F1 mice. It is filed as functional. As to conditions: route intraperitoneal.
Data set [6] deals with Mus musculus. Put plainly: Toxicity day survivors was determined by the ratio of animals survived to that of test animals at 15 mg/kg intraperitoneally in CD2F1 mice; 4/4. The conditions noted are these: in vivo, ip. The arrangement: dose 15 mg/kg, route intraperitoneal. It is filed as organism-based.
The subject of data set [7] is Mus musculus. Put plainly: Body weight change of test animals to that of control was determined after injection at 7.5 mg/kg intraperitoneally in CD2F1 mice. Format: functional. As to conditions: route intraperitoneal.
The subject of data set [8] is Mus musculus. Put plainly: Body weight change of test animals to that of control was determined after injection at 15 mg/kg intraperitoneally in CD2F1 mice. As to conditions: route intraperitoneal. Format: functional.
For data set [9], the system named is Mus musculus. As to the kind of experiment: Toxicity day survivors was determined by the ratio of animals survived to that of test animals at 30 mg/kg intraperitoneally in CD2F1 mice; 6/6. It is filed as organism-based. The arrangement: dose 30 mg/kg, route intraperitoneal. As to conditions: in vivo, ip.
Data set [10] relates to Mus musculus. Put plainly: Net log cell kill was determined after injecting 1.87 mg/kg intraperitoneally in CD2F1 mice. As to conditions: route intraperitoneal. Format: functional.
Data set [11] relates to Mus musculus. Put plainly: Ratio of treated to that of untreated tumor-bearing control animals at 30 mg/kg intraperitoneally in CD2F1 mice was determined. Format: functional. The conditions noted are these: route intraperitoneal.
Data set [12] concerns Mus musculus. As to the kind of experiment: Ratio of treated to that of untreated tumor-bearing control animals at 7.5 mg/kg intraperitoneally in CD2F1 mice was determined. Format: functional. The conditions noted are these: route intraperitoneal.
Data set [13] has as its system Mus musculus. As to the kind of experiment: Net log cell kill was determined after injecting 3.75 mg/kg intraperitoneally in CD2F1 mice. It is filed as functional. The conditions noted are these: route intraperitoneal.
Data set [14] relates to Mus musculus. As to the kind of experiment: Body weight change of test animals to that of control was determined after injection at 1.87 mg/kg intraperitoneally in CD2F1 mice. Format: functional. As to conditions: route intraperitoneal.
For data set [15], the system named is Mus musculus. Put plainly: Body weight change of test animals to that of control was determined after injection at 3.75 mg/kg intraperitoneally in CD2F1 mice. Format: functional. As to conditions: route intraperitoneal.
In data set [16] the test system is Mus musculus. Put plainly: Toxicity day survivors was determined by the ratio of animals survived to that of test animals at 60 mg/kg intraperitoneally in CD2F1 mice; 0/6. Format: organism-based. The conditions noted are these: in vivo, ip. Also noted: dose 60 mg/kg, route intraperitoneal.
Data set [17] relates to Mus musculus. Put plainly: Toxicity day survivors was determined by the ratio of animals survived to that of test animals at 7.5 mg/kg intraperitoneally in CD2F1 mice; 4/4. Format: organism-based. The arrangement: dose 7.5 mg/kg, route intraperitoneal. The conditions noted are these: in vivo, ip.
For data set [18], the system named is Mus musculus. Put plainly: Net log cell kill was determined after injecting 7.5 mg/kg intraperitoneally in CD2F1 mice. It is filed as functional. The conditions noted are these: route intraperitoneal.
Data set [19] concerns Mus musculus. As to the kind of experiment: Net log cell kill was determined after injecting 30 mg/kg intraperitoneally in CD2F1 mice. It is filed as functional. As to conditions: route intraperitoneal.
In data set [20] the test system is Mus musculus. As to the kind of experiment: Toxicity day survivors was determined by the ratio of animals survived to that of test animals at 3.75 mg/kg intraperitoneally in CD2F1 mice; 5/5. Also noted: dose 3.75 mg/kg, route intraperitoneal. It is filed as organism-based. The conditions noted are these: in vivo, ip.
Data set [21] concerns Mus musculus. Put plainly: Ratio of treated to that of untreated tumor-bearing control animals at 3.75 mg/kg intraperitoneally in CD2F1 mice was determined. Format: functional. As to conditions: route intraperitoneal.
Data set [22] deals with Mus musculus. As to the kind of experiment: Toxicity day survivors was determined by the ratio of animals survived to that of test animals at 15 mg/kg intraperitoneally in CD2F1 mice; 0/6. Format: organism-based. Also noted: dose 15 mg/kg, route intraperitoneal. As to conditions: in vivo, ip.
The subject of data set [23] is Mus musculus. As to the kind of experiment: Toxicity day survivors was determined by the ratio of animals survived to that of test animals at 3.75 mg/kg intraperitoneally in CD2F1 mice; 6/6. It is filed as organism-based. The arrangement: dose 3.75 mg/kg, route intraperitoneal. As to conditions: in vivo, ip.
Data set [24] has as its system Mus musculus. As to the kind of experiment: Toxicity day survivors was determined by the ratio of animals survived to that of test animals at 7.5 mg/kg intraperitoneally in CD2F1 mice; 6/6. The arrangement: dose 7.5 mg/kg, route intraperitoneal. The conditions noted are these: in vivo, ip. It is filed as organism-based.
Data set [25] concerns Mus musculus. Put plainly: Toxicity day survivors was determined by the ratio of animals survived to that of test animals at 1.87 mg/kg intraperitoneally in CD2F1 mice; 6/6. Format: organism-based. Also noted: dose 1.87 mg/kg, route intraperitoneal. As to conditions: in vivo, ip.

Regarding `COc1ccc2c(c1)CCc1c(COC(=O)NC(C)C)c(COC(=O)NC(C)C)c(C)n1-2`, the TDS in the data set on Mus musculus [1] was 5; in the data set with Mus musculus [6] it was 4; in the data set with Mus musculus [9], 6; in the data set with Mus musculus [16], 0; with Mus musculus [17], 4; with Mus musculus [20], 5. For the same molecule, the T/C in the data set on Mus musculus [2] is on record as 150%; in the data set with Mus musculus [3], 97%; with Mus musculus [11], 160%; with Mus musculus [12] it was 116%; in the data set with Mus musculus [21] it was 105%. For the same molecule, the KE is on record as 1.43 in the data set on Mus musculus [4]; -1.56 in the data set with Mus musculus [10]; -1.45 in the data set with Mus musculus [13]; -1.31 in the data set with Mus musculus [18]; 1.51 with Mus musculus [19]. Besides, the T-C in the data set on Mus musculus [5] is given as -4.2 g; in the data set with Mus musculus [7], -2.9 g; with Mus musculus [8], -6.5 g; with Mus musculus [14], -0.6 g; in the data set with Mus musculus [15], -0.8 g.

As to `Cc1c(COC(=O)NC(C)C)c(COC(=O)NC(C)C)c2n1-c1ccccc1CC2`, the T/C with Mus musculus [3] was 134%; with Mus musculus [12], 94%; with Mus musculus [21], 155%. Moreover, the T-C in the data set with Mus musculus [7] is -2.8 g; in the data set on Mus musculus [14], -1.5 g; with Mus musculus [15] it was -3.6 g. Besides, the TDS in the data set with Mus musculus [22] is on record as 0; in the data set on Mus musculus [23], 6; in the data set on Mus musculus [24] it was 6; in the data set with Mus musculus [25], 6. Also, the KE in the data set on Mus musculus [10] is -0.14; in the data set with Mus musculus [13], 1.47; in the data set with Mus musculus [18], -1.64.
